Measured values reported in paper PMC9643865, “Bromo-protopine, a novel protopine derivative, alleviates tau pathology by activating chaperone-mediated autophagy for Alzheimer’s disease therapy” (Frontiers in Molecular Biosciences, 2022).

Legend:
HDAC6 = target: T1, HDAC6 (Homo sapiens, UniProt Q9UBN7); experiment: HDAC6 deacetylase fluorometric assay with pure HDAC6 protein; assay type: biochemical; settings: read-out: 50% inhibitory concentration (IC50) on HDAC6 activity
T1 construct: purchased Enzo Life Sciences BML-AK516
T1 sequence (Q9UBN7 1-1215): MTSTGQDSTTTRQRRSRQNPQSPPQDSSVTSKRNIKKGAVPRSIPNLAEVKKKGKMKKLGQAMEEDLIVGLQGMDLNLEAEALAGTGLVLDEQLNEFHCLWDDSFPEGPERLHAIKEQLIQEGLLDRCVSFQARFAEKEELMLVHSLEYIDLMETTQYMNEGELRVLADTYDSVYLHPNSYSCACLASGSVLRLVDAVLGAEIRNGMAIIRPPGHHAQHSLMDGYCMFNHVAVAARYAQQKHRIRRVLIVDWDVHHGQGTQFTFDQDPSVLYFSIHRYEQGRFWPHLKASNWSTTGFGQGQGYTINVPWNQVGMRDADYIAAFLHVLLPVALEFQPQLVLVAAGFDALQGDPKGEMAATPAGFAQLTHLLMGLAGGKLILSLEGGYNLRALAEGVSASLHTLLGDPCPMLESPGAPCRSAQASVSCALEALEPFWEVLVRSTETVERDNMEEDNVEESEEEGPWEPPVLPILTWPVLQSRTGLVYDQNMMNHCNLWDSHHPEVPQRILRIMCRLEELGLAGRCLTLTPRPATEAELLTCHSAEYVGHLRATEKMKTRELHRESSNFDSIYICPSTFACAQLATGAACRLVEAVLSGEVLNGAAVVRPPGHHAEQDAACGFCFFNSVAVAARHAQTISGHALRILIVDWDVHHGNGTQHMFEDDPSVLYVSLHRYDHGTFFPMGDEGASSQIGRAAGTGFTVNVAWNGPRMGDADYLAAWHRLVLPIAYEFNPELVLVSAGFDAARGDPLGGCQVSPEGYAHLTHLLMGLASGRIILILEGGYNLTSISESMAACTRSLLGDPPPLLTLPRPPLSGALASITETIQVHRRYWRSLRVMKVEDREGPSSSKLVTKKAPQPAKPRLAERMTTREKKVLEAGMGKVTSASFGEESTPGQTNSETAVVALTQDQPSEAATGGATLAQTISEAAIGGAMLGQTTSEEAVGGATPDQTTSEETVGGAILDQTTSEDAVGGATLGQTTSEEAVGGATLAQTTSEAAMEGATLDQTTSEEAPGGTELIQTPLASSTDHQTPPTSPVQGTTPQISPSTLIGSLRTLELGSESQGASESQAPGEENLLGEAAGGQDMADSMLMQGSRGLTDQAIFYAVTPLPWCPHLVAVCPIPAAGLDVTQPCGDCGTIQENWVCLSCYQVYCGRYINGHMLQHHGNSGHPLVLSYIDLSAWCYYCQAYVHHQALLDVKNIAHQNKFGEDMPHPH
Protocol: Inhibition of HDAC6 activity was performed in accordance with the manufacturer’s protocol. Briefly, PRO-Br at various concentrations in HDAC Assay buffer II were prepared. The appropriate substrate solution provided in the kit was added, and the reaction plate was incubated at 37°C. The reaction was stopped by the addition of Developer II, and the fluorometric reading was measured at 440 nm using a fluorometer (Wallac EnVision).
HDAC6 is a cytoplasmic deacetylase that targets key proteins such as α-tubulin and HSP90. […] Therefore, inhibition of HDAC6 activity could be a promising therapeutic strategy for AD. […] To determine the binding of PRO/PRO-Br to HDAC6, we used molecular docking, and the binding affinity was determined from the binding free energies (Kcal/mol). From the docking study, the binding free energy of PRO-Br and PRO with HDAC6 was calculated to be −8.4 kcal/mol and −8.1 kcal/mol (Figures 5C–F), respectively.

HT22 cells = experiment: LAMP2A / HSC70 immunocytochemistry and immunoblotting; assay type: cell-based, mouse; settings: immunocytochemistry, 12.5 and 25 μM, 24 h
Protocol: SHSY5Y cells stably-expressing mutant tau (SHSYP301L) were cultured in DMEM/F12 + 15% FBS, 3 μg/ml Blasticidin S HCl, and 1X PSN. N2A mouse neuroblastoma and mouse hippocampal neuronal (HT22) cells were cultured in DMEM+10% FBS, and 1X PSN. Sterile complete medium containing PRO-Br was added to the cells, and they were then incubated for 24 h at an optimum temperature of 37°C in a sterile 5% CO2 incubator.
After PRO-Br treatment, cells were solubilised using cold RIPA lysis buffer (9803, Life Technologies), containing protease and phosphatase inhibitor tablets. Cells were sonicated and centrifuged at 14000 rpm for 15 min. Total protein concentration was determined by BCA protein assay, and the samples were separated on SDS-PAGE and transferred to PVDF membranes. The membranes were blocked, washed, and incubated with primary antibodies (Table 1), and incubated at 4°C, overnight. The membranes were further incubated with the required dilutions of secondary antibody for 1 h, at RT. The chemiluminescent signals were captured using x-ray film in a darkroom, with an appropriate chemiluminescent substrate kit (ThermoFisher Scientific, United States). Films were scanned, and the relative intensities of the signals were analyzed using ImageJ software.
HT22 cells were cultured in sterile 24-well culture dishes containing 14 mm cover-glass. Cells were treated with PRO-Br (12.5 and 25 μM), and DMSO (0.1%), for 24 h. Cells were fixed with paraformaldehyde (4%), permeabilized with triton-X-100 (0.1%), and blocked with BSA (2%). LAMP2A antibody (1:500), and HSC70 antibody (1:500) was added to the processed cells and incubated overnight at four°C. Alexa Fluor® 488 (green) and Alexa Fluor® 594 (red) secondary antibodies (1:400) were added and incubated for 1.5 h at room temperature. FluorSave reagent (Merck Millipore, United States) was added, then cover-slipped, and images were captured by a Leica confocal imaging system.

CN1CCc2cc3c(cc2C(=O)Cc2ccc4c(c2C1)OCO4)OCO3 [PRO, Protopine]
IC50 (HDAC6): 2360 nM
expression of LAMP2A (HT22 cells): did not enhance LAMP2A protein expression
